The results in this text go back to patent US20250268829A1, “INHALED ANTIBACTERIAL FORMULATIONS FOR TREATING LUNG INFECTIONS” (Board of Regents, The University of Texas System, priority 2022, published 2025).

Assay type in all cases: physicochemical
The nature of series [1]: Geometric particle size distribution, HELOS laser diffraction with RODOS dispersion. Conditions: Avg. The procedure:
HELOS laser diffraction instrument (Sympatec Americas, Pennington, NJ) using the RODOS dispersion feature was used to assess the geometric particle size distribution of both the milled and unmilled powders. The particle size distribution was measured at different pressures from 0.5-3 bar to analyze the effect of dispersion pressure on particle deaggregation. Measurements that were between 5% and 25% optical density were averaged to determine particle size distribution.

Series [2] is described as follows: True density, helium multipycnometer. The procedure:
The true density of the processed powders was measured using a helium multipycnometer (Quantachrome Instruments, Boynton Beach, FL) with a micro-sample cell. The sample cell was filled to at least 75% of the total volume with milled or unmilled tigecycline powder. Using equation (1), the pressure of both the reference cell (P1) and sample cell (P2) was determined, and the true volume of the sample was calculated as follows:
For the micro-sample cell utilized, Vc was calibrated at 11.76156 cm^3 and VR=6.34216 cm^3. The sample weight was divided by the measured true volume to obtain the true density. Measurements were repeated until the standard deviation of ten consecutive true density measurements was less than 0.01 g/mL.

Series [3] is described as follows: In vitro aerosol performance, Next Generation Impactor (NGI). Conditions: for Emitted Dose / Emitted Fraction / GSD / MMAD / RF (<5 μm): 4 kPa; for RF (<5 μm): percent of total dose. Here is the method:
The in vitro aerosol performance of the milled and unmilled powders was assessed using Next Generation Impactor (NGI) with a low and high resistance DPI (RS01 Monodose DPI (RS01 DPI; Plastiape). About 10 mg of the powder was added to size 3 hydroxypropyl methylcellulose (HPMC) capsules and the analysis was performed for a length of time sufficient to draw 4 L of air through the NGI, as per USP requirements. The pressure drop across the system was equivalent to either 4 kPa or 1 kPa. The flow rates required across the pressure drop to draw 4 L of air through the NGI, as per USP requirements, were 93 L/min for 4 kPa and 47.6 L/min for 1 kPa. The aerosol performance was compared between the low resistance device and the high resistance device. Also, the performance of the Plastiape devices was compared to that of Handihaler, a commercially used DPI. TIG deposited in each stage was dissolved in a buffer containing 0.015 M oxalic acid and 0.015 M sodium phosphate monobasic at pH 7 and quantified using a UV-Visible spectrophotometer (Tecan Systems, Inc., San Jose, CA, USA) at 245 nm. The aerodynamic particle size metrics that were calculated include emitted dose (ED), emitted fraction (EF), the respiratory fraction (RF), fine particle dose (FPD), fine particle fraction (FPF), mass median aerodynamic diameter (MMAD), and geometric standard deviation (GSD). […]

Series [4] can be described thus: Water content by thermogravimetric analysis (TGA). To be noted: baseline. The procedure: The water content of the powders was assessed using thermogravimetric analysis (TGA). About 5 mg of powder was loaded into a 70 μL alumina crucible. The samples were heated from 35-350° C. at a rate of 10° C./min.
(§1) The milled powder was stored for 30 days at 25° C./60% RH and 45° C./75% RH, as specified by the International Council for Harmonization (ICH) intermediate and accelerated stability conditions using sealed amber vials. At the 30-day and 6 month time point, the powder was characterized for its physicochemical properties, stability, and aerosol performance. The results obtained from day 30 and 6 months were compared to baseline measurements to declare storage stability.

Series [5] in a line: Water sorption by dynamic vapor sorption (DVS). To be noted: baseline. The procedure:
Dynamic vapor sorption (DVS) analysis of the powders was performed using an Automated Water Sorption Analyzer (Surface Measurement Systems, London, UK). Briefly, 5-10 mg of milled and unmilled TIG powder was used as the sample. The samples were allowed to equilibrate under nitrogen until dm/dt<0.002%. Water sorption was analyzed as 10 steps from 0% relative humidity (RH) to 100% RH where step dm/dt was set at 0.075% at 10% increments in RH.
as §1

Molecules are shown by their SMILES.

As for `CN(C)c1cc(NC(=O)CNC(C)(C)C)c(O)c2c1C[C@H]1C[C@H]3[C@H](N(C)C)C(O)=C(C(N)=O)C(=O)[C@@]3(O)C(O)=C1C2=O` [Unmilled tigecycline, tigecycline], the Dv90 worked out at 18.38 μm in series [1] (dispersing pressure 0.5 bar); 16.29 μm in series [1] (dispersing pressure 1 bar); 10.79 μm in series [1] (dispersing pressure 2 bar); 9.49 μm in series [1] (dispersing pressure 3 bar); 9.48 μm in series [1] (dispersing pressure 3 bar, listed as unmilled powders). Also, the “True Density” value in series [2] amounted to 1.282 ± 0.0004 g/mL. The “Emitted Dose” value is 7.66 ± 5.11 mg in series [3] (Handihaler) and 8.48 ± 0.25 mg in series [3] (LR Plastiape). In addition, the entries for the “Emitted Fraction” value in series [3] (Handihaler) and in series [3] (LR Plastiape) were 64.60 ± 0.23% and 90.20 ± 0.27%, respectively. Besides, the GSD in series [3] (Handihaler) was determined as 1.13 ± 0.11; in series [3] (LR Plastiape) it was 1.25 ± 0.01. For the same compound, the MMAD in series [3] (Handihaler) is recorded as 8.27 ± 1.41 μm; in series [3] (LR Plastiape, listed as Unmilled), 5.73 ± 0.52 μm; in series [3] (LR Plastiape, listed as unmilled tigecycline), 5.73±0.52 μm. The “RF (<5 μm)” value in series [3] (Handihaler) amounted to 16.44 ± 2.12%; in series [3] (LR Plastiape) it was 28.59 ± 1.56%. In addition, the “emitted dose deposited in the capsule, device, throat and early NGI stages” value in series [3] (pressure drop of 4 kPa) was above 65%. Also, the “Fine Particle Dose (FPD)” value in series [3] (pressure drop of 4 kPa, before storage) came out at 2.57 ± 0.06 mg. For the same compound, the “fine particle fraction (FPF)” value in series [3] (pressure drop of 4 kPa, before storage, particles below 5 μm with respect to emitted dose) came to 31.70±1.83%. Also, the Water content result in series [4] is “negligible”. The hygroscopicity entry in series [5] is “not hygroscopic”.
